US12338270B2, “Pharmaceutical composition comprising polypeptide” (D&D Pharmatech Inc., priority 2018, dated 2025)
Positions of bridges follow the written chain, without caps; N, C: chain ends. Non-standard residues stand in square brackets, D forms with d. Residues, ends and D or L forms follow the SMILES beside them. No end group written: not given here. Aib = CC(C)(N)C(=O)O

What was measured:
[1] = animal experiment on anti-obesity effect of Example 1; assay type: in vivo; conditions: no details
[2] = molecular target: human glucagon GLP-1 receptor (Homo sapiens, UniProt P43220); test: cell-based
Protocol: Thereafter, the cells were incubated for 4 hours under conditions of a temperature of 37° C. in a CO2 incubator.

Pancreatic lipase = molecular target: T1, Pancreatic lipase (Homo sapiens, UniProt P16233); conditions: background statement; cited from earlier work
T1 sequence (P16233 17-465): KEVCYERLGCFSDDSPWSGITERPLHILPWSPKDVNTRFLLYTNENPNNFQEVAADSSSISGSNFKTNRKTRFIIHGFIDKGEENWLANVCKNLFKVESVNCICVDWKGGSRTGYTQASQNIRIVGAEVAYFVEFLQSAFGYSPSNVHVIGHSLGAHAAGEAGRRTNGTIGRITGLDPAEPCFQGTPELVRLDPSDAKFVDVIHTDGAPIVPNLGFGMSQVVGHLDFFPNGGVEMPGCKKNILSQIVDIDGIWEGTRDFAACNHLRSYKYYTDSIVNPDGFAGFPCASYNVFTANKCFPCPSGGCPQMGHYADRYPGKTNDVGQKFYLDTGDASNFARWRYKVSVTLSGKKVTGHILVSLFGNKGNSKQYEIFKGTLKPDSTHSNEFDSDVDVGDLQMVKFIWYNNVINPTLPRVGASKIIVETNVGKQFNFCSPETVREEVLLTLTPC

[3] = system: obesity animal model (C57BL/6 mice, 60% high-fat diet); test: blood glucose in obesity model, Examples 2 and 6 (Experimental Example 6); assay type: in vivo; conditions: 20 nmol/kg s.c. once every other day for 2 weeks; FIG. 5
Protocol: (§1) To check a preventing or therapeutic effect of the conjugates of Examples 2 and 6, which had different amino acid sequences, on obesity or diabetes, an animal model of obesity was prepared by feeding a 60% high-fat diet to normal C57BL/6 mice (approximately 6 weeks old) for approximately 24 weeks, and increasing the body weights of the mice to approximately 50 g in average. Thereafter, each of the conjugates of Examples 2 or 6 was administered by subcutaneous injection at a dose of 20 nmol/kg once every other day for 2 weeks. As the control, PBS was administered instead of the conjugates of Examples. For 2 weeks when the conjugates of Examples 2 or 6 were administered, changes in blood glucose with time were measured. Also, to perform an intraperitoneal glucose tolerance test (ipGTT), 2 g/kg of glucose was administered intraperitoneally after the 2-week administration of the drug, and changes in blood glucose with the elapse of time (0, 15, 30, 60, 90, and 120 minutes) were measured.

[4] = system: obesity animal model (C57BL/6 mice, 60% high-fat diet); test: ipGTT in obesity model, Examples 2 and 6 (Experimental Example 6); assay type: in vivo; conditions: 2 g/kg glucose i.p. after 2 weeks of 20 nmol/kg s.c. once every other day; FIG. 6
Protocol: as §1

Chain of human glucagon GLP-1 receptor (P43220 24-463): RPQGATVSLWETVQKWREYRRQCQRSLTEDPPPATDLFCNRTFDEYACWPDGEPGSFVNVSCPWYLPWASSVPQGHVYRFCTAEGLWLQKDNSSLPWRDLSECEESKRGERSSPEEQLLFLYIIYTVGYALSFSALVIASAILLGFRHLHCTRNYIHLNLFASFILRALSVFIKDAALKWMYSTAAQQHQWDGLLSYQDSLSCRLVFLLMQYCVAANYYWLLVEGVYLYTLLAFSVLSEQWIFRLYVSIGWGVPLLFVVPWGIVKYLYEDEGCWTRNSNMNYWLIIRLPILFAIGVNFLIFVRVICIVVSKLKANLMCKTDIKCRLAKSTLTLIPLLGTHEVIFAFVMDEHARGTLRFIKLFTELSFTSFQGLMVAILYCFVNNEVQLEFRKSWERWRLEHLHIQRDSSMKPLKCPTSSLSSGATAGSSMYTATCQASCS

In the case of CSCC[C@H](NC(=O)[C@H](CC(C)C)NC(=O)[C@H](Cc1c[nH]c2ccccc12)NC(=O)[C@H](CCC(N)=O)NC(=O)[C@@H](NC(=O)[C@H](Cc1ccccc1)NC(=O)[C@H](CCC(=O)O)NC(=O)[C@@H]1CCCCNC(=O)CC[C@H](NC(=O)[C@H](CC(=O)O)NC(=O)[C@H](CC(C)C)NC(=O)[C@H](Cc2ccc(O)cc2)NC(=O)[C@H](CCCCN)NC(=O)[C@H](CO)NC(=O)[C@H](Cc2ccc(O)cc2)NC(=O)[C@H](CC(=O)O)NC(=O)[C@H](CO)NC(=O)[C@@H](NC(=O)[C@H](Cc2ccccc2)NC(=O)[C@@H](NC(=O)CNC(=O)[C@H](CCC(N)=O)NC(=O)C(C)(C)NC(=O)[C@@H](N)Cc2c[nH]cn2)[C@@H](C)O)[C@@H](C)O)C(=O)N[C@@H](CCC(N)=O)C(=O)N[C@@H](C)C(=O)N[C@@H](C)C(=O)N1)C(C)C)C(=O)N[C@@H](CC(N)=O)C(=O)N[C@H](C(=O)N[C@@H](CS)C(=O)O)[C@@H](C)O [Example 1] (H-H[Aib]QGTFTSDYSKYLDEQAAKEFVQWLMNTC-OH; lactam 16-20 (inferred); N-terminus and C-terminus assumed), the “anti-obesity effect” value [1] is reported as “had an anti-obesity effect” and the EC50 [2] is reported as 0.13 nM.
In the case of CCCCCCCCCCC[C@@H](C[C@@H]1OC(=O)[C@H]1CCCCCC)OC(=O)[C@H](CC(C)C)NC=O [tetrahydrolipstatin (orlistat), tetrahydrolipstatin], the “inhibition of absorption of ingested fats” value (Pancreatic lipase) is listed as “approximately 30%”.
For “Example 6: Conjugate of polypeptide H(Aib)QGTFTSDYSKYLDEEAVKEFVQWLMNTC (SEQ ID NO. 4) and tri-branched mPEG-MAL (MW: 50 kDa) (H[Aib]QGTFTSDYSKYLDEEAVKEFVQWLMNTC; not fully specified (residue 30, bridges); printed as H(Aib)QGTFTSDYSKYLDEEAVKEFVQWLMNTC; also: conjugate with tri-branched mPEG-MAL 50 kDa)”, the “level of blood glucose vs control” value [3] was “a level of blood glucose was lowered” and the “increase in blood glucose in ipGTT vs control” value [4] was “an increase in blood glucose was significantly reduced”.
